Results reported in BigSolDB 2.1.

Conditions: in water

C=CCC
Conditions | solubility (mole fraction)
293.15 K | 9.53e-05
295.15 K | 8.78e-05
298.15 K | 7.97e-05
300.15 K | 7.44e-05
303.15 K | 6.77e-05
305.15 K | 6.42e-05
308.15 K | 5.96e-05
310.15 K | 5.56e-05
313.15 K | 5.24e-05
315.15 K | 4.9e-05
318.15 K | 4.63e-05
320.15 K | 4.42e-05
323.15 K | 4.12e-05
